Laboratory results taken from patent US10577395B2 (priority 2014, dated 2020).
In brackets after ≈: the same amount, converted by molar mass. Like-named read-outs stand apart in the source and are kept apart here. Marks after values point to notes of the source that are not given here.

Key:
[1] = tested on: methicillin and oxacillin-resistant Staphylococcus aureus subsp. aureus (MRSA strain ATCC 43300); assay: Antimicrobial assay, MIC, MRSA; assay type: cell-based; details: Staphylococcus aureus
Procedure: (§1) Assays were carried out following the methods of Clinical and Laboratory Standards Institute; Methods for Dilution Antimicrobial Susceptibility Tests for Bacteria That Grow Aerobically; Approved Standard, […].; CLSI document M07-A8; Clinical and Laboratory Standards Institute: Wayne, Pa., 2009.
(§2) This diluted bacterial stock solution was then inoculated into a well of a V-shaped 96-well glass coated microtiter plate, supplemented with serial diluted aliquots of the antibiotic solution DMSO (4 μL), to achieve a total assay volume of 0.1 mL. The plate was then incubated at 37° C. for 18 hours, after which minimal inhibitory concentrations (MICs) were determined by monitoring the cell growth (observed as a pellet) in the wells. The lowest concentration of antibiotic (in μg/mL) capable of eliminating the cell growth in the wells is reported as the MIC.

[2] = tested on: panel of Gram-positive bacteria (VSSA, MRSA, VanA and VanB VRE); assay: Antimicrobial assay, MIC across the bacterial panel; assay type: cell-based, S. aureus, E. faecalis, E. faecium; details: for MIC: Staphylococcus aureus, read-out: MICs across the bacterial panel, vancomycin-sensitive and vancomycin-resistant strains
Procedure: as §1, §2

[3] = tested on: vancomycin-sensitive Staphylococcus aureus (VSSA strain ATCC 25923); assay: Antimicrobial assay, MIC, vancomycin-sensitive S. aureus; assay type: cell-based; details: Staphylococcus aureus, ATCC 25923
Procedure: as §1, §2

[4] = tested on: vancomycin-resistant Enterococcus faecalis (VanB VRE, strain ATCC 51299); assay: microbe, parasite or virus in culture; assay type: cell-based; details: Enterococcus faecalis
Procedure: as §1, §2

[5] = tested on: vancomycin-resistant Enterococcus faecalis (VanA VRE, BM4166); assay: microbe, parasite or virus in culture; assay type: cell-based; details: for MIC: Enterococcus faecalis, VRE
Procedure: as §1, §2

[6] = tested on: Enterococcus faecium (VanA VRE, ATCC BAA-2317); assay: Antimicrobial assay, MIC, VanA E. faecium; assay type: cell-based; details: Enterococcus faecium
Procedure: as §1, §2

VanA VRE = assay: Antimicrobial assay, MIC for VanA VRE; assay type: cell-based, E. faecalis and E. faecium
Procedure: as §1, §2

[7] = Binding of model ligand 11 (Y = NH), association constant Ka; details: ratio of Ka for ligand 11 to ligand 12
[8] = cited from earlier work; for ligand, Ka (M^−1), 11, Y = NH: association constant, ligand 11 (Y = NH)
[9] = association constant, ligand 12 (Y = O); cited from earlier work
[10] = tested on: vancomycin-resistant Enterococcus faecalis (VanA VRE, BM4166); details: E. faecalis (BM4166, VanA VRE); earlier studies; cited from earlier work
[11] = read-out: MIC, MRSA S. aureus, serum concentration 10%
[12] = read-out: MIC, MRSA S. aureus, serum concentration 25%
[13] = read-out: MIC, MRSA S. aureus, serum concentration 100%
[14] = ATCC25923, read-out: MIC, sensitive S. aureus, serum concentration 10%, 10%
[15] = ATCC25923, read-out: MIC, sensitive S. aureus, serum concentration 100%, 100%
[16] = ATCC25923, 25%, read-out: MIC, sensitive S. aureus, serum concentration 25%
[17] = ATCC25923, read-out: MIC, sensitive S. aureus
[18] = read-out: MIC, Van B E. faecalis, serum concentration 10%
[19] = read-out: MIC, Van B E. faecalis, serum concentration 25%
[20] = read-out: MIC, Van B E. faecalis, serum concentration 100%
[21] = read-out: MIC, VanB E. faecalis
[22] = read-out: MIC, Van A E. faecalis, serum concentration 10%
[23] = read-out: MIC, Van A E. faecalis, serum concentration 25%
[24] = read-out: MIC, Van A E. faecalis, serum concentration 100%
[25] = read-out: MIC, VanA E. faecalis
[26] = read-out: MIC, Van A E. faecium, serum concentration 10%
[27] = read-out: MIC, Van A E. faecium, serum concentration 25%
[28] = read-out: MIC, Van A E. faecium, serum concentration 100%

| Compound | MIC ([1]; read-out: MIC, MRSA S. aureus) | MIC [1, 11] | MIC [1, 12] | MIC [1, 13] | MIC [3, 14] | MIC [3, 15] | MIC [3, 16] | MIC [3, 17] | MIC [4, 18] | MIC [4, 19] | MIC [4, 20] | MIC [4, 21] | MIC [5, 22] | MIC [5, 23] | MIC [5, 24] | MIC [5, 25] | MIC [6, 26] | MIC [6, 27] | ligand, Ka (M^−1), 11, Y = NH [8] | ligand, Ka (M^−1), 12, Y = O [9] | other results |
| --- | --- | --- | --- | --- | --- | --- | --- | --- | --- | --- | --- | --- | --- | --- | --- | --- | --- | --- | --- | --- | --- |
| CN[C@H](CC(C)C)C(=O)N[C@H]1C(=O)N[C@@H](CC(N)=O)C(=O)N[C@H]2C(=S)NC3C(=O)N[C@H](C(=O)N[C@H](C(=O)O)c4cc(O)cc(O)c4-c4cc3ccc4O)[C@H](O)c3ccc(c(Cl)c3)Oc3cc2cc(c3OC2OC(CO)C(O)[C@H](O)[C@@H]2O[C@H]2CC(C)(N)[C@H](O)[C@H](C)O2)Oc2ccc(cc2Cl)[C@H]1O (stereo partly shown) [Compound 2, [Ψ[C(═S)NH]Tpg^4]vancomycin] | > 32 µg/mL | > 32 µg/mL | > 32 µg/mL | > 32 µg/mL | > 32 µg/mL | > 32 µg/mL | > 32 µg/mL | > 32 µg/mL | > 32 µg/mL | > 32 µg/mL | > 32 µg/mL | > 32 µg/mL | > 32 µg/mL | > 32 µg/mL | > 32 µg/mL | > 32 µg/mL | > 32 µg/mL | > 32 µg/mL | – | – | MIC [2]: > 32 µg/mL; MIC [6, 28]: > 32 µg/mL; MIC ([6]; read-out: MIC, VanA E. faecium): > 32 µg/mL |
| CN[C@H](CC(C)C)C(=O)N[C@H]1C(=O)N[C@@H](CC(N)=O)C(=O)N[C@H]2C(=S)NC3C(=O)N[C@H](C(=O)N[C@H](C(=O)O)c4cc(O)cc(O)c4-c4cc3ccc4O)[C@H](O)c3ccc(c(Cl)c3)Oc3cc2cc(c3OC2OC(CO)C(O)[C@H](O)[C@@H]2O[C@H]2CC(C)(NCc3ccc(-c4ccc(Cl)cc4)cc3)[C@H](O)[C@H](C)O2)Oc2ccc(cc2Cl)[C@H]1O (stereo partly shown) [Compound 5, N-4-(4′-chlorobiphenyl)-methyl [Ψ[C(═S)NH]Tpg^4]vancomycin] | 2 µg/mL (≈ 1.2 µM) | 2 µg/mL (≈ 1.2 µM) | 4 µg/mL (≈ 2.4 µM) | 4 µg/mL (≈ 2.4 µM) | 2 µg/mL (≈ 1.2 µM) | 4 µg/mL (≈ 2.4 µM) | 2 µg/mL (≈ 1.2 µM) | 2 µg/mL (≈ 1.2 µM) | 2 µg/mL (≈ 1.2 µM) | 2 µg/mL (≈ 1.2 µM) | 8 µg/mL (≈ 4.8 µM) | 2 µg/mL (≈ 1.2 µM) | 4 µg/mL (≈ 2.4 µM) | 4 µg/mL (≈ 2.4 µM) | 8 µg/mL (≈ 4.8 µM) | 4 µg/mL (≈ 2.4 µM) | 4 µg/mL (≈ 2.4 µM) | 4 µg/mL (≈ 2.4 µM) | – | – | MIC [2]: 2 to 4 µg/mL (≈ 1.2 to 2.4 µM); MIC [6, 28]: 8 µg/mL (≈ 4.8 µM); MIC ([6]; read-out: MIC, VanA E. faecium): 4 µg/mL (≈ 2.4 µM) |
| CN[C@H](CC(C)C)C(=O)N[C@H]1C(=O)N[C@@H](CC(N)=O)C(=O)N[C@H]2C(=N)NC3C(=O)N[C@H](C(=O)N[C@H](C(=O)O)c4cc(O)cc(O)c4-c4cc3ccc4O)[C@H](O)c3ccc(c(Cl)c3)Oc3cc2cc(c3OC2OC(CO)C(O)[C@H](O)[C@@H]2O[C@H]2CC(C)(NCc3ccc(-c4ccc(Cl)cc4)cc3)[C@H](O)[C@H](C)O2)Oc2ccc(cc2Cl)[C@H]1O (stereo partly shown) [Compound 6, N-4-(4′-chlorobiphenyl)methyl [Ψ[C(═NH)NH]Tpg^4]-vancomycin] | 0.06 µg/mL (≈ 0.0364 µM) | 0.06 µg/mL (≈ 0.0364 µM) | 0.24 µg/mL (≈ 0.146 µM) | 1 µg/mL (≈ 0.606 µM) | 0.03 µg/mL (≈ 0.0182 µM) | 1 µg/mL (≈ 0.606 µM) | 0.12 µg/mL (≈ 0.0728 µM) | 0.03 µg/mL (≈ 0.0182 µM) | 0.06 µg/mL (≈ 0.0364 µM) | 0.12 µg/mL (≈ 0.0728 µM) | 1 µg/mL (≈ 0.606 µM) | 0.06 µg/mL (≈ 0.0364 µM) | 0.005 µg/mL (≈ 0.00303 µM) | 0.06 µg/mL (≈ 0.0364 µM) | 0.5 µg/mL (≈ 0.303 µM) | 0.005 µg/mL (≈ 0.00303 µM) | 0.005 µg/mL (≈ 0.00303 µM) | 0.06 µg/mL (≈ 0.0364 µM) | – | – | potency relative to Compound 17, on average across the panel [2]: 15 fold; increase in activity against VanA VRE relative to vancomycin (Compound 1) (VanA VRE): 50,000 fold; MIC (VanA VRE; Enterococcus, VRE, read-out: MIC against VanA VRE): 0.005 µg/mL (≈ 0.00303 µM); improvement in activity against VanA VRE on introduction of the (4-chlorobiphenyl)methyl group (VanA VRE; relative to the analogue without CBP group): 100 fold; MIC [6, 28]: 0.5 µg/mL (≈ 0.303 µM); MIC ([6]; read-out: MIC, VanA E. faecium): 0.005 µg/mL (≈ 0.00303 µM) |
| CN[C@H](CC(C)C)C(=O)N[C@H]1C(=O)N[C@@H](CC(N)=O)C(=O)N[C@H]2C(=O)N[C@H]3C(=O)N[C@H](C(=O)N[C@H](C(=O)O)c4cc(O)cc(O)c4-c4cc3ccc4O)[C@H](O)c3ccc(c(Cl)c3)Oc3cc2cc(c3O)Oc2ccc(cc2Cl)[C@H]1O [Compound 7, vancomycin aglycon] | – | – | – | – | – | – | – | – | – | – | – | – | – | – | – | – | – | – | 170000 M⁻¹ | 120 M⁻¹ | Ka(11/12) [7]: 1400; VanA MIC [10]: 640 µg/mL |
| CN[C@H](CC(C)C)C(=O)N[C@H]1C(=O)N[C@@H](CC(N)=O)C(=O)N[C@H]2C(=S)NC3C(=O)N[C@H](C(=O)N[C@H](C(=O)O)c4cc(O)cc(O)c4-c4cc3ccc4O)[C@H](O)c3ccc(c(Cl)c3)Oc3cc2cc(c3O)Oc2ccc(cc2Cl)[C@H]1O [Compound 8, [Ψ[C(═S)NH]Tpg^4]vancomycin aglycon] | – | – | – | – | – | – | – | – | – | – | – | – | – | – | – | – | – | – | 170 M⁻¹ | 11 M⁻¹ | VanA MIC [10]: >640 µg/mL |
| CN[C@H](CC(C)C)C(=O)N[C@H]1C(=O)N[C@@H](CC(N)=O)C(=O)N[C@H]2C(=N)NC3C(=O)N[C@H](C(=O)N[C@H](C(=O)O)c4cc(O)cc(O)c4-c4cc3ccc4O)[C@H](O)c3ccc(c(Cl)c3)Oc3cc2cc(c3O)Oc2ccc(cc2Cl)[C@H]1O [Compound 9, [Ψ[C(═NH)NH]Tpg^4]vancomycin aglycon] | – | – | – | – | – | – | – | – | – | – | – | – | – | – | – | – | – | – | 73000 M⁻¹ | 69000 M⁻¹ | Ka(11/12) [7]: 1.05; binding affinity for both target ligands relative to vancomycin aglycon with D-Ala-D-Ala ([8]; D-Ala-D-Ala and D-Ala-D-Lac): ≤ 2 fold; VanA MIC, μg/mL ([5]; E. faecalis (BM4166, VanA VRE), tested herein alongside Compounds 1-6): 1^b μg/mL |
| [Ψ[CH2NH]Tpg^4]vancomycin aglycon [Compound 10] | – | – | – | – | – | – | – | – | – | – | – | – | – | – | – | – | – | – | 4800 M⁻¹ | 5200 M⁻¹ | Ka(11/12) [7]: 0.9; VanA MIC [10]: 31 µg/mL |
